The nature of data set [1]: ORAChydro (Oxygen Radical Absorbance Capacity) assay. In kind it is physicochemical. The text has this:
(§1) Dihydroquercetin is a:far more powerful antioxidant than vitamins A, C and E, as indicated by its comparative USDA ranking of the Oxygen Radical Absorbance Capacity (ORAC) and supported by other additional studies such as Cell-based Antioxidant Protection (CAP-e) assay against peroxyl radical, which is used to test whether natural products contain antioxidants capable of entering into and protecting live cells from oxidative damage.
(§2) The majority of HAT-based assays apply a competitive reaction scheme, in which antioxidant and substrate compete for thermally generated peroxyl radicals through the decomposition of azo compounds. ORAC and CAP-e can also be applied as an assays for the inhibition of induced low-density lipoprotein oxidation and other oxygen radical absorbances. […]
(§3) Among all the HAT-based assays, ORAC and CAP-e adopted an AUC (area under curve) technique to quantify antioxidant capacity. […]
(§4) Therefore, the ORAC and CAP-e assays has been broadly applied in academics and the food and supplement industry as the method of choice to quantify antioxidant capacity. […] The ORAChydro value of our dihydroquercetin has been measured at is 3,890 micromole of Trolox equivalent per […] capsule or 28,000 micromole Trolox equivalent per gram. The CAP-e value of our dihydroquercetin has been measured at is 9.9 CAP-e units per gram.

For data set [2], the system named is umbilical vein endothelial (HUVE) cells. As to conditions: cited from earlier work.
The test system of data set [3] is human lung embryonic fibroblasts (TIG-1). Conditions: TIG-1 cells; cited from earlier work.
Data set [4] concerns bacterial mutagenicity. Conditions: bacterial mutagenicity tests, cited from earlier work.
Data set [5] deals with peroxyl radical. Kind of data set: Cell-based Antioxidant Protection (CAP-e) assay. Conditions: per gram.
Description: as §1, §2, §3, §4

The subject of data set [6] is 8-hydroxy-2′-deoxyguanosine. As to conditions: Fenton reaction catalyzed by copper; cited from earlier work.
The conditions of data set [7]: clinical feedback, usually females; cited from earlier work.

For the compound `O=C1c2c(O)cc(O)cc2O[C@H](c2ccc(O)c(O)c2)[C@H]1O` [Dihydroquercetin], the figures for the ORAChydro value in data set [1] (per 412.3 mg capsule) and in data set [1] (per gram) were 3,890 micromole of Trolox equivalent per 412.3 mg capsule and 28,000 micromole Trolox equivalent per gram, respectively. Further, the 50% lethal concentration in data set [2] was greater than 200 µmol; in data set [3], greater than 300 µmol. Further, the “times less mutagenic than quercetin” value in data set [4] (relative to quercetin) is 400 times. Further, the minimum mutagenic dose in data set [4] was 1626 nmol. Further, the CAP-e value in data set [5] is recorded as 9.9 CAP-e units per gram. Moreover, in data set [6], the pro-oxidant activity entry was “did not present pro-oxidant activity”.

For the compound `O=c1c(O)c(-c2ccc(O)c(O)c2)oc2cc(O)cc(O)c12` [quercetin, reference compound], in data set [4], the minimum mutagenic dose is listed as 4 nml.

Larch Arabinogalactan: the “occasional reaction of bloating and flatulence, share of individuals” value in data set [7] is recorded as “less than three percent”.

Turning to catechin [reference compound], in data set [6], the pro-oxidant activity result is listed as “did not present pro-oxidant activity”.

(Values after patent US20130216585A1, “COMPOSITION AND METHODS FOR QUENCHING FREE RADICALS AND MODULATING INFLAMMATION” (FLAVITPURE, INC., priority 2012, published 2013).)
